In PubChem BioAssay (NCI):
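Growth conditions: 96-well plates. Treatment: test compound, 48 hours, 5 concentrations. Analysis: linear interpolation between bracketing concentrations; unreached endpoints set to highest concentration. Here, GI50 denotes the concentration required for 50% inhibition of growth. TGI marks complete inhibition of growth.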

How the values were obtained:
Test in all cases: NCI anticancer screen, dose series, 48 h
A498 renal = test system: A498 renal
HT29 colon = test system: HT29 colon
M14 melanoma = test system: M14 melanoma
MALME-3M melanoma = test system: MALME-3M melanoma
MDA-MB-435 = test system: MDA-MB-435
SF-268 CNS = test system: SF-268 CNS
SNB-19 CNS = test system: SNB-19 CNS
EKVX NSCLC = test system: EKVX NSCLC
OVCAR-4 ovarian = test system: OVCAR-4 ovarian
NCI-H226 lung = test system: NCI-H226 lung

SMILES | GI50 (A498 renal) | TGI (A498 renal) | GI50 (HT29 colon) | TGI (HT29 colon) | GI50 (M14 melanoma) | TGI (M14 melanoma) | GI50 (MALME-3M melanoma) | TGI (MALME-3M melanoma) | GI50 (MDA-MB-435) | TGI (MDA-MB-435) | GI50 (SF-268 CNS) | TGI (SF-268 CNS) | GI50 (SNB-19 CNS) | TGI (SNB-19 CNS) | TGI (EKVX NSCLC) | TGI (OVCAR-4 ovarian) | TGI (NCI-H226 lung) | GI50 (EKVX NSCLC) | GI50 (NCI-H226 lung) | GI50 (OVCAR-4 ovarian)
Nc1nc2c(s1)CCc1c-2c(Br)n(Cc2ccccc2)c1Br | 17.3 µM | 33.8 µM | 10.9 µM | 27.7 µM | 14.5 µM | 30.2 µM | 3.76 µM | 15.4 µM | 8.57 µM | 30.7 µM | 14.6 µM | 39 µM | 23.3 µM | 86.4 µM |  |  |  |  |  | 
COc1c(C(=O)c2ccc([N+](=O)[O-])cc2)cc(C(C)(C)C)cc1C(C)(C)C |  | > 100 µM |  | 88 µM |  | > 100 µM |  | > 100 µM |  |  |  | > 100 µM |  | > 100 µM | > 100 µM | > 100 µM |  |  |  | 
CCOC(=O)CSC(=O)NCCCl |  | > 100 µM |  | > 100 µM |  | > 100 µM |  | > 100 µM |  |  |  | > 100 µM |  | > 100 µM | > 100 µM | > 100 µM | > 100 µM |  |  | 
COc1ccc(C2CC(c3cc(C)ccc3O)=NC(N)=N2)cc1 (stereo not given) |  | > 100 µM |  | > 100 µM |  | > 100 µM |  | > 100 µM |  |  |  | > 100 µM |  | > 100 µM | > 100 µM | > 100 µM | > 100 µM |  |  | 
CCOC(=O)C1C2CCC(C2)C1(CCl)C(=O)OCC (stereo not given) |  | > 100 µM |  | > 100 µM |  | > 100 µM |  | > 100 µM |  |  |  | > 100 µM |  | > 100 µM |  | > 100 µM | > 100 µM |  |  | 
N#Cc1c2c(c(N=P(c3ccccc3)(c3ccccc3)c3ccccc3)n3c1nc1ccccc13)CCCC2 |  | 73.2 µM |  | 74.9 µM |  | > 100 µM |  | > 100 µM |  |  |  | > 100 µM |  | 99.2 µM | > 100 µM | > 100 µM | 22.4 µM |  |  | 
CCCCCCCCCCCCCC(=O)OCC1OC(n2cc(F)c(=O)[nH]c2=O)C(NC(=O)OCc2ccccc2)C(OC(=O)CCCCCCCCCCCCC)C1O (stereo not given) |  | > 100 µM |  | > 100 µM |  | > 100 µM |  | > 100 µM |  |  |  | > 100 µM |  | > 100 µM | > 100 µM | > 100 µM | > 100 µM |  |  | 
NS(=O)(=O)c1ccc(NC2=CC(=O)C(=O)c3ccccc32)cc1 |  | > 100 µM |  | > 100 µM |  | > 100 µM |  | > 100 µM |  |  |  | > 100 µM |  | > 100 µM | > 100 µM | > 100 µM | > 100 µM |  |  | 
NNC(=O)CNC(=O)c1ccc(Cl)cc1Cl |  | > 100 µM |  | > 100 µM |  | > 100 µM |  | > 100 µM |  |  |  | > 100 µM |  | > 100 µM | > 100 µM | > 100 µM | > 100 µM |  |  | 
O=C1c2ccccc2C(=O)N1CCN(CCN1C(=O)c2ccccc2C1=O)Cn1cccn1 |  | > 100 µM |  |  |  | > 100 µM |  |  |  |  |  | > 100 µM |  | > 100 µM | > 100 µM | > 100 µM |  |  |  | 
C=C(C)[C@@H]1CC[C@]2(C(=O)O)CC[C@]3(C)[C@H](CC[C@@H]4[C@@]5(C)C[C@@H](CC#Cc6ccc(C(F)(F)F)cc6)[C@H](O)C(C)(C)[C@@H]5CC[C@]43C)[C@@H]12 | 3.16 µM | > 100 µM | 3.01 µM | > 100 µM |  |  |  |  |  |  |  |  | 3.29 µM | > 100 µM | > 100 µM |  | > 100 µM | 3.82 µM | 2.91 µM | 
COc1ccc2c(c1)[n+](=O)c(C(=O)c1ccco1)c(C(F)(F)F)n2[O-] | 3.98 µM | 16 µM | 4.59 µM | > 100 µM | 2 µM | 6.72 µM |  |  | 3.08 µM | 14.5 µM | 3.41 µM | 33.2 µM | 4.25 µM | 45.5 µM | 9.81 µM |  | 17.6 µM | 3.47 µM | 3.04 µM | 
CC(=O)c1ccc(OCC(O)CO)cc1 (stereo not given) |  | > 100 µM |  | > 100 µM |  | > 100 µM |  | > 100 µM |  |  |  | > 100 µM |  | > 100 µM | > 100 µM | > 100 µM | > 100 µM |  |  | 
Oc1ccc(O)c(-c2cn3ccsc3n2)c1 | 47 µM | 84.5 µM |  |  | 15.2 µM | 28.5 µM |  |  | 11.2 µM | 23.7 µM | 14.4 µM | > 100 µM | 20.9 µM | 49.7 µM | 35.8 µM |  | 33.6 µM | 18.4 µM | 9.11 µM | 
CC1CC(=O)Nc2ccccc2N1C(=O)CN1CCC(CCCCN(C)C)CC1 (stereo not given) |  | > 100 µM |  | > 100 µM |  | > 100 µM |  | > 100 µM |  |  |  | > 100 µM |  | > 100 µM | > 100 µM | > 100 µM | > 100 µM |  |  | 
CC1SC2=NC3=C(c4ccccc4C3=O)C(c3ccc(Cl)cc3)N2C1=O (stereo not given) |  | > 100 µM |  | > 100 µM |  | > 100 µM |  | > 100 µM |  |  |  | > 100 µM |  | > 100 µM | > 100 µM | > 100 µM | > 100 µM |  |  | 
CC1=NOC(=O)/C1=C/c1cccc2ccccc12 |  | > 100 µM |  | > 100 µM |  | > 100 µM |  | > 100 µM |  |  |  | > 100 µM |  | > 100 µM | > 100 µM | > 100 µM | > 100 µM |  |  | 
CCN(CC)CCOc1ccccc1/C=C/c1noc2ccccc12 |  | 31.3 µM |  | 16 µM |  | 15.4 µM |  | 13.9 µM |  |  |  | 37 µM |  | 26.7 µM | 31.9 µM | 50.7 µM | 30.5 µM |  |  | 
O=C1CCC2CC(C(=O)c3ccccc3)CCC2CN1 (stereo not given) (tested in a mixture with another compound) |  |  |  | > 100 µM |  | > 100 µM |  | > 100 µM |  |  |  | > 100 µM |  | > 100 µM | > 100 µM | > 100 µM | > 100 µM |  |  | 
C/C(=C\CCc1ccoc1)CC/C=C(\C)CCCN1CCOCC1 | 4.48 µM | 19.7 µM |  |  | 1.65 µM | 3.42 µM |  |  | 3.48 µM | 13.7 µM | 7.03 µM | 21.7 µM | 9.27 µM | 23.6 µM |  | 14.3 µM | 30.7 µM |  | 10.5 µM | 3.21 µM
Clc1ccc2c(c1)N(c1ncnc3ccc(-c4cnc5[nH]ccc5c4)cc13)CC2 |  |  | 1.03 µM | 2.66 µM | 0.992 µM | 11.9 µM | 1.08 µM | 19.5 µM | 0.295 µM | 1.2 µM | 3.14 µM | 24.1 µM | 4.48 µM | 35.5 µM | 34.4 µM | 16.9 µM | 22 µM | 0.789 µM | 2.76 µM | 1.12 µM
